Measured values: US20050113371A1, “Antifungal agent for topical use” (priority 2002, published 2005)
Read-outs that look alike come from different tables or passages of the source.

Assays:
[1] = cited from earlier work
[2] = cited from earlier work; remark: listed apart in the source
[3] = system: Trichophyton rubrum; experiment: Antifungal activity on Sabouraud agar medium, MIC and FIC index (Test Examples 1 and 2); type: cell-based; details: for FIC index obtained by the combination of amorolfine hydrochloride with another medicine: Test Example 1, amorolfine hydrochloride + medicine at mass ratio 1:1; for MIC: Trichophyton rubrum, 168 h, read-out: Minimum inhibitory concentration (MIC)
Description: (§1) Amorolfine hydrochloride and each specimen (hereinafter referred to as “medicine”) at a mass ratio of 1:1 were dissolved in dimethyl sulfoxide (DMSO). Two-fold dilution series were prepared with DMSO. In the determination of the antifungal activity, the medicine and the medium were mixed together at a ratio of 1:99.
(§2) Sabouraud agar medium (Eiken) was used as a susceptibility determination medium. A microbe suspension containing 10^6 spores/mL of Candida albicans or about 10^6 conidia/mL of ringworm fungus was prepared. 5 μl of the suspension was inoculated on the Sabouraud agar medium containing the medicine with a micro-planter (a product of Sakuma Seisakusho). Candida albicans was cultured for 2 days and the tinea was cultured for 7 days. […]

[4] = system: Trichophyton mentagrophytes; experiment: as above; type: cell-based; details: for FIC index obtained by the combination of amorolfine hydrochloride with another medicine: Test Example 1, amorolfine hydrochloride + medicine at mass ratio 1:1; for MIC: Trichophyton mentagrophytes, 168 h, read-out: Minimum inhibitory concentration (MIC)
Description: as §1, §2

[5] = system: Trichophyton mentagrophytes TIMM 1189; experiment: Tinea infection model of guinea pigs, culture test (Test Example 3); type: in vivo; details: 0.75 mass % in polyethylene glycol 400 (combination 1:2), 0.1 mL once a day for 5 days from 3 days after inoculation; culture on 5th day after last application; 10 loci
Description: Amorolfine hydrochloride and each specimen (hereinafter referred to as “medicine”) at a mass ratio of 1:2 were dissolved in polyethylene glycol 400 to obtain a final concentration of 0.75% mass ratio. Each of amorolfine hydrochloride and the medicines was separately dissolved in polyethylene glycol 400 to obtain solutions having the final concentration of 0.75 mass %.
Male Hartley guinea pigs (Japan SLC Co., Ltd.; 6 weeks) were used. In the course of the test, they were kept separately from one another in an isolator (Negative rack, CLEA JAPAN, Inc.). They could freely have a solid food (G standard, Nihon Nosan Kogyo KK) and water.
Trichophyton mentagrophytes TIMM 1189 was cultured on slant Sabouraud glucose agar medium at 27° C. for 14 days. Then, sterilized saline containing 0.05% of Tween 80 was added thereto to obtain conidia. The resultant suspension was filtered through a cell strainer (FALCON Co., Ltd.) to remove large mycelian masses. The number of conidia was counted with hemocytometer. The conidia were diluted to 4×10^7/mL with sterilized saline containing 0.05% of Tween 80 to obtain the conidial suspension for inoculation.
The back of each guinea pig was shaved. Then, a circular inoculation part having a diameter of 2 cm was positioned on both sides of the spinal column. A gummed tape was applied thereto and then peeled. These steps was repeated three times, whereby the hair was pulled out of the skin in both parts and, at the same time, the top of the corneous layer of the skin was peeled off. The remaining hair was completely removed with tweezers. […]
When at least one of the 10 small pieces taken from one inoculated locus of the skin was the positive after the culture, the inoculated locus was judged to be positive. The ratio of positive loci after culture was calculated from the number of the cultured positive pieces in the total 10 inoculated loci in each experiment group.
The number of the cultured positive small pieces in the inoculated portion was scored as will be described below to determine the infection. […]

[6] = in vivo; cited from earlier work
[7] = system: Candida; details: cited from earlier work
[8] = system: Candida albicans; experiment: Antifungal activity on Sabouraud agar medium, MIC and FIC index (Test Examples 1 and 2); type: cell-based; details: for MIC: Candida albicans, 48 h, read-out: Minimum inhibitory concentration (MIC); for FIC index obtained by the combination of amorolfine hydrochloride with another medicine: Test Example 1, amorolfine hydrochloride + medicine at mass ratio 1:1
Description: as §1
(§3) Sabouraud agar medium (Eiken) was used as a susceptibility determination medium. A microbe suspension containing 10^6 spores/mL of Candida albicans or about 10^6 conidia/mL of ringworm fungus was prepared. 5 μl of the suspension was inoculated on the Sabouraud agar medium containing the medicine with a micro-planter (a product of Sakuma Seisakusho). Candida albicans was cultured for 2 days and the tinea was cultured for 7 days.
The effect obtained by the combination was judged on the basis of the following standards (FIC index): • >2: antagonism • 2>and 1<: additive action • 1>: potentiation
(1) Amorolfine hydrochloride and each specimen (hereinafter referred to as “medicine”) at a mass ratio of 100:1 to 1:100 were dissolved in dimethyl sulfoxide (DMSO). Two-fold dilution series were prepared with DMSO. In the determination of the antifungal activity, the medicine and the medium were mixed together at a ratio of 1:99.
(2) Amorolfine hydrochloride and each specimen (hereinafter referred to as “medicine”) at a mass ratio of 1:3 to 3:1 were dissolved in dimethyl sulfoxide (DMSO). Two-fold dilution series were prepared with DMSO. In the determination of the antifungal activity, the medicine and the medium were mixed together at a ratio of 1:99.
as §3, with “conidia/mL of each of two kinds of ringworm fungus” for “conidia/mL of ringworm fungus”, “agar medium with a” for “agar medium containing the medicine with a”, “and the Tinea fungus was cultured” for “and the tinea was cultured”

[9] = rabbit, in vivo; cited from earlier work
[10] = cited from earlier work; remark: listed apart in the source
[11] = rats, oral; administration from before the pregnancy to the lactation period or perinatal period/lactation period; cited from earlier work
[12] = Test Example 2, geometric mean MIC of two strains, cultured 7 days

CN(Cc1ccc(C(C)(C)C)cc1)Cc1cccc2ccccc12.Cl [butenafine hydrochloride, N-4-tert-butylbenzyl-N-methyl-1-naphthalenemethylamine hydrochloride]
LD50 ([1]; Wistar rats, intravenous injection, female): ≥ 100 mg/kg | LD50 ([1]; Wistar rats, intravenous injection, male): > 100 mg/kg | LD50 ([1]; Wistar rats, oral, male and female): > 4000 mg/kg | LD50 ([1]; Wistar rats, percutaneous, male and female): > 1000 mg/kg | LD50 ([1]; Wistar rats, subcutaneous, male and female): > 150 mg/kg | LD50 ([2]; Beagle dogs, male, oral): > 5000 mg/kg | LD50 ([2]; Beagle dogs, male, percutaneous): > 100 mg/kg | FIC index obtained by the combination of amorolfine hydrochloride with another medicine ([3]; cultured 7 days): 0.38 | MIC [3, 12]: 0.004 µg/mL | FIC index obtained by the combination of amorolfine hydrochloride with another medicine ([4]; cultured 7 days): 0.49 | MIC [4, 12]: 0.016 µg/mL | rate of positive loci after culture [5]: 100% | toxicity on the reproduction or development [6]: No toxicity was found | antifungal effect on Candida [7]: ineffective | MIC ([8]; Test Example 2, geometric mean MIC of two strains, cultured 2 days): > 8 µg/mL | FIC index obtained by the combination of amorolfine hydrochloride with another medicine ([8]; cultured 2 days): 0.38 | Minimum inhibitory concentration (MIC) ([8]; Test Example 2, geometric mean MIC of two strains, cultured 2 days, listed as B, hydrochloride): >8.0 µg/mL | localized irritation [9]: weak | LD50 ([10]; ICR male and female mice, intravenous injection): > 140 mg/kg | LD50 ([10]; ICR male and female mice, oral): > 5000 mg/kg | LD50 ([10]; ICR male and female mice, percutaneous): > 800 mg/kg | LD50 ([10]; ICR male and female mice, subcutaneous): > 200 mg/kg

CCC(C)(C)c1ccc(CC(C)CN2CC(C)OC(C)C2)cc1.Cl (racemic) [amorolfine hydrochloride, (±)-cis-2,6-dimethyl-4-[3-[4-(1,1-dimethylpropyl)phenyl]-2-methylpropyl]-morpholine monohydrochloride]
LD50 ([1]; rats, intraperitoneal injection, female): 465 mg/kg | LD50 ([1]; rats, intraperitoneal injection, male): 468 mg/kg | LD50 ([1]; rats, oral, female): 1756 mg/kg | LD50 ([1]; rats, oral, male): 1960 mg/kg | LD50 ([1]; rats, subcutaneous, male and female): > 2000 mg/kg | dose with an influence on the survival rate of newborn babies [11]: at least 10 mg/kg/day | LD50 ([2]; dogs, oral, male and female): > 1000 mg/kg | LD50 ([2]; dogs, subcutaneous, male): > 2500 mg/kg | MIC [3]: 0.016 µg/mL | MIC [4]: 0.031 µg/mL | rate of positive loci after culture [5]: 100% | MIC [8]: 1 µg/mL | LD50 ([10]; mice, intraperitoneal injection, female): 239 mg/kg | LD50 ([10]; mice, intraperitoneal injection, male): 205 mg/kg | LD50 ([10]; mice, intravenous injection, female): 112 mg/kg | LD50 ([10]; mice, intravenous injection, male): 141 mg/kg | LD50 ([10]; mice, oral, female): 2406 mg/kg | LD50 ([10]; mice, oral, male): 2514 mg/kg | LD50 ([10]; mice, subcutaneous, male and female): > 5000 mg/kg

Cc1cc(C2CCCCC2)n(O)c(=O)c1.NCCO [Ciclopyrox olamine]
FIC index obtained by the combination of amorolfine hydrochloride with another medicine ([3]; cultured 7 days): 1.0 | FIC index obtained by the combination of amorolfine hydrochloride with another medicine ([4]; cultured 7 days): 1.0 | FIC index obtained by the combination of amorolfine hydrochloride with another medicine ([8]; cultured 2 days): 0.38

Cc1cccc(N(C)C(=S)Oc2ccc3ccccc3c2)c1 [Tolnaftate]
FIC index obtained by the combination of amorolfine hydrochloride with another medicine ([3]; cultured 7 days): 0.35 | FIC index obtained by the combination of amorolfine hydrochloride with another medicine ([4]; cultured 7 days): 1.25 | FIC index obtained by the combination of amorolfine hydrochloride with another medicine ([8]; cultured 2 days): 0.38

N#C/C(=C1/SCC(c2ccccc2Cl)S1)n1ccnc1 (centres unmarked) [Lanoconazole]
FIC index obtained by the combination of amorolfine hydrochloride with another medicine ([3]; cultured 7 days): 1.25 | FIC index obtained by the combination of amorolfine hydrochloride with another medicine ([4]; cultured 7 days): 1.00 | FIC index obtained by the combination of amorolfine hydrochloride with another medicine ([8]; cultured 2 days): 0.53
